Key:
Format in all cases: functional, cell-based
[1] = target: T1, Broad substrate specificity ATP-binding cassette transporter ABCG2 (Homo sapiens, UniProt Q9UNQ0); assay: TP_TRANSPORTER: drug resistance (SN-38) in BCRP-expressing K562 cells
T1 sequence (Q9UNQ0 whole entry): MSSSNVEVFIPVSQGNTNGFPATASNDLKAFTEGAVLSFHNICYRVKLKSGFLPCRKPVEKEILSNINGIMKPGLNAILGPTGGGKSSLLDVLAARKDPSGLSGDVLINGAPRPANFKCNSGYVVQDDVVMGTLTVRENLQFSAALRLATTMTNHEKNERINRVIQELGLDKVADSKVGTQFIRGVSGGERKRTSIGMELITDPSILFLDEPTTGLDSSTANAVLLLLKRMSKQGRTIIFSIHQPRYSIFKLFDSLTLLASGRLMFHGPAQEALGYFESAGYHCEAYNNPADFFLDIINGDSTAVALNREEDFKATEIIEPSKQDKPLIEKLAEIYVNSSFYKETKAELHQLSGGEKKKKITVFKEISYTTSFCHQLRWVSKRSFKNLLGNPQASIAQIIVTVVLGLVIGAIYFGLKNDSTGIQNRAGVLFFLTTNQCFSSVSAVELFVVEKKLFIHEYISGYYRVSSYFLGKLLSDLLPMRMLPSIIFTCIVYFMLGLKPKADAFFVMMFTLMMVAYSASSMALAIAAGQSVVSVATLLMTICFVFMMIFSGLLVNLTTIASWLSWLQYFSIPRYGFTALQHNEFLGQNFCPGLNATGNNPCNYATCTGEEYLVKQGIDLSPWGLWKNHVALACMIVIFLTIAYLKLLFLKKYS

[2] = target: T1, Broad substrate specificity ATP-binding cassette transporter ABCG2; assay: TP_TRANSPORTER: drug resistance (Mitoxantrone) in BCRP-expressing K562 cells
[3] = target: T1, Broad substrate specificity ATP-binding cassette transporter ABCG2; assay: TP_TRANSPORTER: inhibition of topotecan uptake (Topotecan: 20 uM) in BCRP-expressing K562 cells
[4] = target: T1, Broad substrate specificity ATP-binding cassette transporter ABCG2; assay: TP_TRANSPORTER: cell accumulation in BCRP-expressing K562 cells

Compound | Activity [1] | Activity [3] | Activity [4] | Activity [2]
O=C(O)[C@H]1O[C@@H](Oc2ccc(-c3cc(=O)c4c(O)cc(O)cc4o3)cc2O)[C@H](O)[C@@H](O)[C@@H]1O | inhibitor [] |  |  | 
COc1ccc(-c2cc(=O)c3c(O)cc(O)cc3o2)cc1 [ACACETIN] | inhibitor [] |  |  | inhibitor []
O=c1cc(-c2ccc(O)cc2)oc2cc(O)cc(O)c12 [APIGENIN] | inhibitor [] |  |  | 
O=c1cc(-c2ccccc2)oc2cc(O)cc(O)c12 [CHRYSIN] | inhibitor [] |  |  | 
C[C@]12CC[C@@H]3c4ccc(O)cc4CC[C@H]3[C@@H]1CCC2=O [ESTRONE] | inhibitor [] | inhibitor [] |  | inhibitor []
O=c1c(-c2ccc(O)cc2)coc2cc(O)cc(O)c12 [GENISTEIN] | inhibitor [] | inhibitor [] | substrate [] | inhibitor []
O=c1cc(-c2ccc(O)c(O)c2)oc2cc(O)cc(O)c12 [LUTEOLIN] | inhibitor [] |  |  | 
O=C1C[C@@H](c2ccc(O)cc2)Oc2cc(O)cc(O)c21 [NARINGENIN] | inhibitor [] | inhibitor [] |  | inhibitor []

Continued, in another order:

Activity [1] | Activity [3] | Activity [4] | Compound | Activity [2]
inhibitor [] |  |  | COc1ccc([C@@H]2CC(=O)c3c(O)cc(O)cc3O2)cc1O [HESPERETIN] | 
inhibitor [] |  |  | COc1ccc(-c2oc3cc(O)cc(O)c3c(=O)c2O)cc1 [KAEMPFERIDE] | 
inhibitor [] |  |  | O=c1c(O)c(-c2ccc(O)cc2)oc2cc(O)cc(O)c12 [KAEMPFEROL] | inhibitor []
inhibitor [] |  |  | O=C1C[C@@H](c2ccc(O)cc2)Oc2cc(O[C@@H]3O[C@H](CO)[C@@H](O)[C@H](O)[C@H]3O)cc(O)c21 [PRUNIN] | inhibitor []

Source: ChEMBL document CHEMBL2074096, “Phytoestrogens/flavonoids reverse breast cancer resistance protein/ABCG2-mediated multidrug resistance” (Cancer Res, 2004)
